Assay results reported in ChEMBL document CHEMBL2169886 (J Med Chem, 2012).

Key:
clinical [1] = details: human, plasma
clinical [2] = details: human, in vivo, po, 30 mg
Rattus norvegicus = species on record: Rattus norvegicus; details: in vivo, po, BLD = below limit of detection
in vivo [3] = details: rat
in vivo [4] = details: rat, po
physchem = details: buffer, pH 7.4

Compound	AUC (clinical [1])	Cmax at 1.2 h (clinical [2])	F (Rattus norvegicus)	Vd (in vivo [3])	bioavailability (in vivo [4])	logD (physchem)
CS(=O)(=O)O.OCCn1cc(-c2cnc3nnn(Cc4ccc5ncccc5c4)c3n2)cn1	810 ng·h/mL	240 ng/mL				
N[C@@H]1CCN(c2cnc3nnn(Cc4ccc5ncccc5c4)c3n2)C1			BLD	3.6 L/kg		
c1cnc2ccc(Cn3nnc4ncc(-c5cnn(C6CCNCC6)c5)nc43)cc2c1			BLD	27 L/kg		
Nc1cnc2nnn(Cc3ccc4ncccc4c3)c2n1				0.95 L/kg	75%	1.23
OCCn1cc(-c2cnc3nnn(Cc4ccc5ncccc5c4)c3n2)cn1 [PF-04217903]				1.6 L/kg	71%	1.38
